Test results reported in patent publication US10722520B2, “Heterocyclic compounds and their use in preventing or treating bacterial infections” (MUTABILIS, priority 2016, dated 2020).
pIC50: −log10 of the molar value.

Key:
E. cloacae P99 [1] = assay: MIC of compound alone, broth microdilution; format: cell-based; settings: strain P99; compound alone
Method in brief: (§1)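 Step one, log-phase suspension set to 5×10^5 cfu/mL final in CA-MHB. Step two, incubation at 35° C under ambient air for 16-20 h. Step three, visual reading of the lowest growth-free concentration as MIC.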

E. coli 190317 [2] = assay: MIC of compound alone, broth microdilution; format: cell-based; settings: strain 190317; compound alone
Method in brief: as §1

K. pneumoniae 6299 [3] = assay: MIC of compound alone, broth microdilution; format: cell-based; settings: strain 6299; compound alone
Method in brief: as §1

K. pneumoniae BAA-1898 [4] = assay: MIC of compound alone, broth microdilution; format: cell-based; settings: strain BAA-1898; compound alone
Method in brief: as §1

P. aeruginosa CIP107051 [5] = assay: MIC of compound alone, broth microdilution; format: cell-based; settings: strain CIP107051; compound alone
Method in brief: as §1

E. cloacae P99 [6] = assay: MIC of ceftazidime (CAZ) at fixed concentration of compound (synergy), broth microdilution; format: cell-based; settings: strain P99; MIC of CAZ, compound fixed at 4 μg/mL
Experimental: (§2) Log phase bacterial suspensions were adjusted to a final density of 5×10^5 cfu/mL in cation-adjusted Mueller-Hinton broth (Becton-Dickinson) and added to each well (98 μL). Microplates were incubated for 16-20 h at 35° C. in ambient air. The MIC of the compounds was defined as the lowest concentration of said compounds that prevented bacterial growth as read by visual inspection.

E. coli 190317 [7] = assay: as above; format: cell-based; settings: strain 190317; MIC of CAZ, compound fixed at 4 μg/mL
Experimental: as §2

K. pneumoniae 6299 [8] = assay: as above; format: cell-based; settings: strain 6299; MIC of CAZ, compound fixed at 4 μg/mL
Experimental: as §2

K. pneumoniae BAA-1898 [9] = assay: as above; format: cell-based; settings: strain BAA-1898; MIC of CAZ, compound fixed at 4 μg/mL
Experimental: as §2

P. aeruginosa CIP107051 [10] = assay: as above; format: cell-based; settings: strain CIP107051; MIC of CAZ, compound fixed at 4 μg/mL
Experimental: as §2

AmpC (P99) = AmpC (P99) (Enterobacter cloacae, UniProt P05364); settings: read-out: IC50 β-lactamase AmpC (P99); class (C); nitrocefin 200 μM, 30-min pre-incubation, enzyme 0.2 nM
CMY-37 = CMY-37 (Citrobacter freundii, UniProt P05193); settings: read-out: IC50 β-lactamase CMY-37; class (C); nitrocefin 200 μM, 30-min pre-incubation, enzyme 0.2 nM
AmpC (PAE) = AmpC (PAE) (Pseudomonas aeruginosa, UniProt P24735); settings: read-out: IC50 β-lactamase AmpC (PAE); class (C); nitrocefin 200 μM, 30-min pre-incubation, enzyme 0.4 nM
OXA-15 = OXA-15 (Pseudomonas aeruginosa, UniProt Q51574); settings: read-out: IC50 β-lactamase OXA-15; class (D); nitrocefin 200 μM, 30-min pre-incubation, enzyme 0.4 nM
TEM-1 = TEM-1 (Escherichia coli, UniProt P62593); settings: read-out: IC50 β-lactamase TEM-1; class (A); nitrocefin 200 μM, 30-min pre-incubation, enzyme 0.1 nM
SHV-1 = SHV-1 (Klebsiella pneumoniae, UniProt P0AD64); settings: read-out: IC50 β-lactamase SHV-1; class (A); nitrocefin 200 μM, 30-min pre-incubation, enzyme 0.075 nM
CTX-M-15 = CTX-M-15 (Escherichia coli, UniProt Q9EXV5); settings: read-out: IC50 β-lactamase CTX-M-15; class (A); nitrocefin 200 μM, 30-min pre-incubation, enzyme 0.4 nM
KPC-2 = KPC-2 (Klebsiella pneumoniae, UniProt Q9F663); settings: read-out: IC50 β-lactamase KPC-2; class (A); nitrocefin 200 μM, 30-min pre-incubation, enzyme 1 nM
OXA-1 = OXA-1 (Escherichia coli, UniProt P13661); settings: read-out: IC50 β-lactamase OXA-1; class (D); nitrocefin 200 μM, 30-min pre-incubation, enzyme 0.2 nM
OXA-11 = OXA-11 (Pseudomonas aeruginosa, UniProt Q06778); settings: read-out: IC50 β-lactamase OXA-11; class (D); nitrocefin 200 μM, 30-min pre-incubation, enzyme 1.2 nM
OXA-48 = OXA-48 (Klebsiella pneumoniae, UniProt Q6XEC0); settings: read-out: IC50 β-lactamase OXA-48; class (D); nitrocefin 200 μM, 30-min pre-incubation, enzyme 0.3 nM

| Structure (SMILES) | MIC compounds of the invention alone (E. cloacae P99 [1]) | MIC compounds of the invention alone (E. coli 190317 [2]) | MIC compounds of the invention alone (K. pneumoniae 6299 [3]) | MIC compounds of the invention alone (K. pneumoniae BAA-1898 [4]) | MIC compounds of the invention alone (P. aeruginosa CIP107051 [5]) | MIC combination of CAZ and compounds of the invention at 4 μg/mL (E. cloacae P99 [6]) | MIC combination of CAZ and compounds of the invention at 4 μg/mL (E. coli 190317 [7]) | MIC combination of CAZ and compounds of the invention at 4 μg/mL (K. pneumoniae 6299 [8]) | MIC combination of CAZ and compounds of the invention at 4 μg/mL (K. pneumoniae BAA-1898 [9]) | MIC combination of CAZ and compounds of the invention at 4 μg/mL (P. aeruginosa CIP107051 [10]) | pIC50 (AmpC (P99)) | pIC50 (CMY-37) | pIC50 (AmpC (PAE)) | pIC50 (OXA-15) | pIC50 (TEM-1) | pIC50 (SHV-1) | pIC50 (CTX-M-15) | pIC50 (KPC-2) | pIC50 (OXA-1) | pIC50 (OXA-11) | also measured |
| --- | --- | --- | --- | --- | --- | --- | --- | --- | --- | --- | --- | --- | --- | --- | --- | --- | --- | --- | --- | --- | --- |
| NC(=O)c1nn(C2=CC3CN(C2)C(=O)N3OS(=O)(=O)[O-])cc1F.[Na+] (stereo not drawn) [Example 26, sodium (7-oxo-3-(3-carboxamide-4-fluoro-pyrazol-1-yl)-1,6-diazabicyclo[3.2.1]oct-3-en-6-yl) sulfate] | 16 µg/mL | 4 µg/mL | 16 µg/mL | 16 µg/mL | >32 µg/mL | 1 µg/mL | <0.25 µg/mL | ≤0.25 µg/mL | 0.5 µg/mL | 4 µg/mL | 7.85 | 7.44 | 6.89 | 7.89 | 9.64 | 8.92 | 9.14 | 8.49 | 7.48 | 8.01 | pIC50 (OXA-48): 8.11 |
| NC(=O)c1cc(F)n(C2=CC3CN(C2)C(=O)N3OS(=O)(=O)[O-])n1.[Na+] (stereo not drawn) [Example 30, sodium (7-oxo-3-(3-carboxamide-5-fluoro-pyrazol-1-yl)-1,6-diazabicyclo[3.2.1]oct-3-en-6-yl) sulfate] | >32 µg/mL | 32 µg/mL | >32 µg/mL | >32 µg/mL | >32 µg/mL | 8 µg/mL | 0.25 µg/mL | 1 µg/mL | 2 µg/mL | 16 µg/mL | 7.55 | 7.00 | 6.43 | 6.77 | 9.48 | 8.57 | 9.00 | 8.28 | 6.46 | 7.54 | pIC50 (OXA-48): 7.44 |
| CC(=O)Nc1ccn(C2=CC3CN(C2)C(=O)N3OS(=O)(=O)O)n1.CCN(CC)CC (stereo not drawn) [Example 33, triethylammonium {[3-(N-acetamido)pyrazol-1-yl]-7-oxo-1,6-diazabicyclo[3.2.1]oct-3-en-6-yl}sulfate] | 16 µg/mL | 8 µg/mL | 32 µg/mL | 32 µg/mL | >32 µg/mL | 1 µg/mL | ≤0.25 µg/mL | 0.25 µg/mL | 16 µg/mL | 8 µg/mL | 8.15 | 8.49 | 7.49 | 7.36 | 9.17 | 8.77 | 9.14 | 7.96 | 7.17 | 8.08 | pIC50 (OXA-48): 8.51 |
| O=C(O)C(F)(F)F.O=C1N2CC(n3ccc(CNc4nccs4)n3)=CC(C2)N1OS(=O)(=O)[O-].[Na+] (stereo not drawn) [Example 35, sodium and 2,2,2-trifluoroacetate [7-oxo-3-[3-(methylene-2-ammoniumthiazole)pyrazol-1-yl]-1,6-diazabicyclo[3.2.1]oct-3-en-6-yl]sulfate] | >32 µg/mL | 16 µg/mL | >32 µg/mL | >32 µg/mL | >32 µg/mL | 32 µg/mL | 0.5 µg/mL | 32 µg/mL | 32 µg/mL | 16 µg/mL | 7.92 | 8.09 | 7.28 | 7.10 | 9.14 | 8.49 | 9.30 | 7.89 | 6.89 | 7.27 | pIC50 (OXA-48): 8.22 |
| C/C(=N/O)c1cnn(C2=CC3CN(C2)C(=O)N3OS(=O)(=O)[O-])c1.[Na+] (stereo not drawn) [Example 39, sodium [3-[4-[(Z,E)-N-hydroxy-C-methyl-carbonimidoyl]pyrazol-1-yl]-7-oxo-1,6-diazabicyclo[3.2.1]oct-3-en-6-yl]sulfate] | >32 µg/mL | >32 µg/mL | >32 µg/mL | >32 µg/mL | >32 µg/mL | 16 µg/mL | 1 µg/mL | 16 µg/mL | 128 µg/mL | 8 µg/mL | 8.02 | 8.09 | 7.09 | 8.07 | 9.68 | 8.89 | 9.25 | 8.39 | 6.82 | 7.14 | pIC50 (OXA-48): 8.74 |
| NCCNC(=O)Cc1ccn(C2=CC3CN(C2)C(=O)N3OS(=O)(=O)[O-])n1.O=C(O)C(F)(F)F.[Na+] (stereo not drawn) [Example 48, sodium and 2,2,2-trifluoroacetate [3-[3-[2-(2-ammoniumethylamino)-2-oxo-ethyl]pyrazol-1-yl]-7-oxo-1,6-diazabicyclo[3.2.1]oct-3-en-6-yl]sulfate] | 32 µg/mL | 4 µg/mL | >32 µg/mL | >32 µg/mL | >32 µg/mL | 0.5 µg/mL | <0.25 µg/mL | 0.25 µg/mL | 4 µg/mL | 4 µg/mL | 6.96 | 7.10 | 6.51 | 6.29 | 8.85 | 8.28 | 8.62 | 6.89 | 6.03 | 6.70 | pIC50 (OXA-48): 7.44 |
